pIC50: −log10 of the molar value.
Columns and labels:
[1] = Inhibition of EGFR del19/T790M/C797S triple mutant in mouse BAF3 cells assessed as reduction in cell proliferation incubated for 3 days by celltiter-glo assay; type: cell-based; settings: BaF3, 72 h
[2] = Inhibition of wild type EGFR in mouse BAF3 cells assessed as reduction in cell proliferation incubated for 3 days by celltiter-glo assay; type: cell-based; settings: BaF3, 72 h
NCI-H1975 [3] = assay: Potency index, ratio of Brigatinib IC50 to test compound IC50 for antiproliferative activity against human NCI-H1975 cells harboring EGFR L858R/T790M/C797S mutant incubated for 72 hrs by SRB assay; type: functional
[4] = Half life in mouse at 5 mg/kg, iv measured upto 24 hrs by LC-MS/MS analysis; type: ADME, organism-based; settings: in vivo
[5] = Stability in mouse plasma assessed as parent compound remaining measured after 2 hrs by LC-MS/MS analysis; type: ADME, cell-free; settings: read-out: Stability
[6] = Microsomal stability in human liver microsome assessed as parent compound remaining preincubated with compound for 60 mins and measured after 1 hr by HPLC analysis; type: ADME; settings: liver microsomes, time 2 hrs, read-out: Stability
NCI-H1975 [7] = assay: Antiproliferative activity against human NCI-H1975 cells harboring EGFR L858R/T790M mutant incubated for 72 hrs by SRB assay; type: functional, cell-based; settings: NCI-H1975, 72 h
HCC827 = assay: Antiproliferative activity against human HCC827 cells harboring EGFR Del19 mutant incubated for 72 hrs by SRB assay; type: functional, cell-based; settings: HCC827, 72 h
[8] = target: T1, Epidermal growth factor receptor (Homo sapiens, UniProt P00533, C797S/EX19DEL/T790M); assay: Inhibition of EGFR del19/T790M/C797S triple mutant (unknown origin) in presence of ATP by FRET assay
[9] = Tmax in mouse at 75 mg/kg, po measured upto 24 hrs by LC-MS/MS analysis; type: ADME, organism-based; settings: in vivo
[10] = Half life in mouse at 75 mg/kg, po measured upto 24 hrs by LC-MS/MS analysis; type: ADME, organism-based; settings: in vivo
[11] = AUC (0 to 24 hrs) in mouse at 75 mg/kg, po measured upto 24 hrs by LC-MS/MS analysis; type: ADME, organism-based; settings: in vivo
[12] = Inhibition of AKT phosphorylation in human PC-9 cells harboring Del19/T790M/C797S mutant incubated for 6 hrs by Western blot analysis; type: cell-based; settings: PC-9, 6 h
[13] = Inhibition of ERK phosphorylation in human PC-9 cells harboring Del19/T790M/C797S mutant incubated for 6 hrs by Western blot analysis; type: cell-based; settings: PC-9, 6 h
[14] = Toxicity in NOD-SCID mouse xenografted with human PC-9 cells harboring Del19/T790M/C797S triple mutant assessed as clinical signs at 50 mg/kg, sc bid administered for 14 days; type: organism-based; settings: in vivo, 336 h, time 14 day
PC-9 [15] = assay: Antiproliferative activity against human PC-9 cells harboring EGFR Del19/T790M/C797S mutant incubated for 72 hrs by SRB assay; type: functional, cell-based; settings: PC-9, 72 h
NCI-H1975 [16] = assay: Antiproliferative activity against human NCI-H1975 cells harboring EGFR L858R/T790M/C797S mutant incubated for 72 hrs by SRB assay; type: functional, cell-based; settings: NCI-H1975, 72 h
[17] = Volume of distribution at steady state in mouse at 5 mg/kg, iv measured upto 24 hrs by LC-MS/MS analysis; type: ADME, organism-based; settings: in vivo, read-out: Vdss
[18] = Clearance in mouse at 5 mg/kg, iv measured upto 24 hrs by LC-MS/MS analysis; type: ADME, organism-based; settings: in vivo
[19] = Oral bioavailability in mouse at 75 mg/kg measured upto 24 hrs by LC-MS/MS analysis; type: ADME, organism-based; settings: in vivo
[20] = target: T1, Epidermal growth factor receptor; assay: Inhibition of EGFR phosphorylation in human PC-9 cells harboring Del19/T790M/C797S mutant incubated for 6 hrs by Western blot analysis; type: cell-based
[21] = Plasma protein binding in mouse assessed as unbound fraction measured after 6 hrs by rapid equilibrium dialysis based LC-MS/MS analysis; type: ADME, cell-free
[22] = target: Epidermal growth factor receptor (Homo sapiens, UniProt P00533, C797S/L858R/T790M); assay: Inhibition of EGFR L858R/T790M/C797S triple mutant (unknown origin) in presence of ATP by FRET assay
A-431 = assay: Antiproliferative activity against human A-431 cells harboring wild type EGFR incubated for 72 hrs by SRB assay; type: functional, cell-based; settings: A-431, 72 h
[23] = target: T2, Epidermal growth factor receptor (Homo sapiens, UniProt P00533); assay: Inhibition of wild type EGFR (unknown origin) in presence of ATP by FRET assay
[24] = Inhibition of AKT phosphorylation in human A-431 cells harboring wild type EGFR incubated for 6 hrs by Western blot analysis; type: cell-based; settings: A-431, 6 h
[25] = Cmax in mouse at 5 mg/kg, iv measured upto 24 hrs by LC-MS/MS analysis; type: ADME, organism-based; settings: in vivo
[26] = Plasma protein binding in human assessed as unbound fraction measured after 6 hrs by rapid equilibrium dialysis based LC-MS/MS analysis; type: ADME, cell-free
PC-9 [27] = assay: Potency index, ratio of Brigatinib IC50 to test compound IC50 for antiproliferative activity against human PC-9 cells harboring EGFR Del19/T790M/C797S mutant incubated for 72 hrs by SRB assay; type: functional
[28] = target: T2, Epidermal growth factor receptor; assay: Inhibition of EGFR phosphorylation in human A-431 cells harboring wild type EGFR incubated for 6 hrs by Western blot analysis; type: cell-based
[29] = Cmax in mouse at 75 mg/kg, po measured upto 24 hrs by LC-MS/MS analysis; type: ADME, organism-based; settings: in vivo
[30] = Inhibition of ERK phosphorylation in human A-431 cells harboring wild type EGFR incubated for 6 hrs by Western blot analysis; type: cell-based; settings: A-431, 6 h
[31] = Microsomal stability in mouse liver microsome assessed as parent compound remaining preincubated with compound for 60 mins and measured after 1 hr by HPLC analysis; type: ADME; settings: liver microsomes, time 2 hrs, read-out: Stability
[32] = Toxicity in NOD-SCID mouse xenografted with human PC-9 cells harboring Del19/T790M/C797S triple mutant assessed as body weight loss at 50 mg/kg, sc bid administered for 14 days; type: organism-based; settings: in vivo, 336 h, time 14 day
[33] = Stability in human plasma assessed as parent compound remaining measured after 2 hrs by LC-MS/MS analysis; type: ADME, cell-free; settings: read-out: Stability
[34] = AUC (0 to 24 hrs) in mouse at 5 mg/kg, iv measured upto 24 hrs by LC-MS/MS analysis; type: ADME, organism-based; settings: in vivo

Epidermal growth factor receptor (Homo sapiens, UniProt P00533, C797S/L858R/T790M), sequence (P00533 25-1210 T790M/C797S/L858R limits assumed): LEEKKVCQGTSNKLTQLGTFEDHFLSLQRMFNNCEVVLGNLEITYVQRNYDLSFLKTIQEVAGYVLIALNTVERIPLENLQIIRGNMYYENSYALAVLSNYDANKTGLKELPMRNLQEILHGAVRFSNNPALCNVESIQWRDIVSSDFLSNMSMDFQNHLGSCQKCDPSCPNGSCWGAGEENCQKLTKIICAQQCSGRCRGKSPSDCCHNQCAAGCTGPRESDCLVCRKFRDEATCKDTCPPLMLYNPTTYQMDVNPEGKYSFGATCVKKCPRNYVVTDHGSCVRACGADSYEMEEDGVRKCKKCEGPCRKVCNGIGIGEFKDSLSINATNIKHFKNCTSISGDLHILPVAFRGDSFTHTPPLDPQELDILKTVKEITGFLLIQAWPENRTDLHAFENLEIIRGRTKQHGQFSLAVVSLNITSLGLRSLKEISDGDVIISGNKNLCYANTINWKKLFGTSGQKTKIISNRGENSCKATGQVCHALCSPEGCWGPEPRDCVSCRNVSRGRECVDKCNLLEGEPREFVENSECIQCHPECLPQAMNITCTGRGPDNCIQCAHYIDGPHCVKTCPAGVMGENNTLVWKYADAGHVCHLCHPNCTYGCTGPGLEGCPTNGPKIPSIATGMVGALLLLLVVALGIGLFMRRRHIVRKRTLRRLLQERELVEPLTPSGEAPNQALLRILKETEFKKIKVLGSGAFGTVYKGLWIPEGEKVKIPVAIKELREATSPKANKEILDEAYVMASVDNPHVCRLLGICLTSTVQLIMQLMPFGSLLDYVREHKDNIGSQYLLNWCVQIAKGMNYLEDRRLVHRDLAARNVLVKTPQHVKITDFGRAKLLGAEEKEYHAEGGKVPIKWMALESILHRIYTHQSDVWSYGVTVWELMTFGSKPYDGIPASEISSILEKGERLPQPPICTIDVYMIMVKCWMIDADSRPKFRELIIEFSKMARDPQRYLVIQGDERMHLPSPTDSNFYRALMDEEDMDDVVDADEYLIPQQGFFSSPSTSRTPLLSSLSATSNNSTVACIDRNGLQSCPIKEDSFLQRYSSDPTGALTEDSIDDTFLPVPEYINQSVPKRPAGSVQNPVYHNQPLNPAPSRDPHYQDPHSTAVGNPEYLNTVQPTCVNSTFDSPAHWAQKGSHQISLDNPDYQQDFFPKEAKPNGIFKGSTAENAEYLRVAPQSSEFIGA
T2 sequence (P00533 whole entry): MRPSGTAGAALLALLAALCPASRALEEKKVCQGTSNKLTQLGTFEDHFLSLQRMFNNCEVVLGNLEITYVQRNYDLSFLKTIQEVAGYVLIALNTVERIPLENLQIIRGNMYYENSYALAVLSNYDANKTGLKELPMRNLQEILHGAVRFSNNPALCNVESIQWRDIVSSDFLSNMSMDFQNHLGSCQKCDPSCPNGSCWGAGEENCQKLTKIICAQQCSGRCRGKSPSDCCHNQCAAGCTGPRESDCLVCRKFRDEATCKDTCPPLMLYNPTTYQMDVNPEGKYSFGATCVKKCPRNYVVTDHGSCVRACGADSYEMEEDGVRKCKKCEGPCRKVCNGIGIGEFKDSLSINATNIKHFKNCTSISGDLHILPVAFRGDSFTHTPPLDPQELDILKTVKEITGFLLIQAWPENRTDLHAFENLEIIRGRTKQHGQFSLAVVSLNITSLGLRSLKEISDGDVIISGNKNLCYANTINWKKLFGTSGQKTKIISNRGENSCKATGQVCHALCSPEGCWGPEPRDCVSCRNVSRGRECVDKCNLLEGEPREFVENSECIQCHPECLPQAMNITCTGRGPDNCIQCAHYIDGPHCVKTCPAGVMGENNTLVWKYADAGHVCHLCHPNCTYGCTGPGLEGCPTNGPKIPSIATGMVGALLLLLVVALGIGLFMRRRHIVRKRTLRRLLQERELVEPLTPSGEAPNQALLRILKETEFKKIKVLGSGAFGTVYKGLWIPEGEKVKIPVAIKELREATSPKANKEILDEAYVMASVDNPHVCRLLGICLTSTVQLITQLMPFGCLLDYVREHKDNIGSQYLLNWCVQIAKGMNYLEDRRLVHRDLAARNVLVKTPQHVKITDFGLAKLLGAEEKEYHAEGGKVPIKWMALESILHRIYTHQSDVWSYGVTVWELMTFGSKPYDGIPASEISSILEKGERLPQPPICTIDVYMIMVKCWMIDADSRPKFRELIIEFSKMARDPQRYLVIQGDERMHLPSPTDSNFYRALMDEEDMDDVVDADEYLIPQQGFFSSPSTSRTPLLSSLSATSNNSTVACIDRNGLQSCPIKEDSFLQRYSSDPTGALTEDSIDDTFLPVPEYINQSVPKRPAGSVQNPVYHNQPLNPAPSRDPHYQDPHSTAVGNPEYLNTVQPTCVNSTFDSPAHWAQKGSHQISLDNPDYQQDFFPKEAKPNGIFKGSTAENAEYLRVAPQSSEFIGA
T1 sequence (P00533 whole entry, looked up, stated change not applied): as the sequence (P00533 whole entry) above

CCN1CCN(C2CCN(c3ccc(Nc4nc(Nc5ccccc5N(C)S(C)(=O)=O)c5cc[nH]c5n4)cc3F)CC2)CC1
pIC50 [1]: 7.81
pIC50 [2]: 6.15
Ratio IC50 (NCI-H1975 [3]): 5.4
half-life [4]: 1.7 h
remaining at 2 h [5]: 97.4%
remaining at 1 h [6]: 57.3%
pIC50 (NCI-H1975 [7]): 7.01
pIC50 (HCC827): 7.07
pIC50 [8]: 8.38
Tmax [9]: 2 h
half-life [10]: 3.5 h
AUC(0-t) at 24 h [11]: 35800 ng·h/mL
pIC50 [12]: 8.15
pIC50 [13]: 7.59
Activity [14]: Non-Toxic
pIC50 (PC-9 [15]): 6.82
pIC50 (NCI-H1975 [16]): 6.89
Vd [17]: 10.8 L/kg
clearance [18]: 53.3 mL/min/kg
bioavailability [19]: > 100%
pIC50 [20]: 8.13
fraction unbound at 6 h [21]: 0.946
pIC50 [22]: 8.33
pIC50 (A-431): 6.32
pIC50 [23]: 4.99
pIC50 [24]: 5.74
Cmax [25]: 1560 ng/mL
fraction unbound at 6 h [26]: 0.937
Ratio IC50 (PC-9 [27]): 5.4
pIC50 [28]: 5.93
Cmax [29]: 5480 ng/mL
pIC50 [30]: 5.78
remaining at 1 h [31]: 24%
Activity [32]: Non-Toxic
remaining at 2 h [33]: 99.1%
AUC(0-t) at 24 h [34]: 1560 ng·h/mL

CN1CCN(c2ccc(Nc3nc(Nc4ccccc4N(C)S(C)(=O)=O)c4cc[nH]c4n3)cc2)CC1
pIC50 [1]: 7.55
pIC50 [2]: 6.92

CN(c1ccccc1Nc1nc(Nc2ccc(N3CCC(N4CCN(C5CC5)CC4)CC3)c(F)c2)nc2[nH]ccc12)S(C)(=O)=O
pIC50 [1]: 6.67
pIC50 [2]: 6.09

CN(c1ccccc1Nc1nc(Nc2ccc(N3CCN(C4CC4)CC3)c(F)c2)nc2[nH]ccc12)S(C)(=O)=O
pIC50 [1]: 6.42
pIC50 [2]: 6.10

CN(c1ccccc1Nc1nc(Nc2ccc(N3CCCCC3)c(F)c2)nc2[nH]ccc12)S(C)(=O)=O
pIC50 [1]: 6.13
pIC50 [2]: 6.13

CN1CCN(c2ccc(Nc3nc(Nc4ccccc4N(C)S(=O)(=O)C4CC4)c4cc[nH]c4n3)cc2F)CC1
pIC50 [1]: 7.53
pIC50 [2]: 6.67

CN1CCN(C2CCN(c3ccc(Nc4nc(Nc5ccccc5N(C)S(C)(=O)=O)c5cc[nH]c5n4)cc3F)CC2)CC1
pIC50 [1]: 7.94
pIC50 [2]: 6.60
pIC50 (NCI-H1975 [7]): 6.68
pIC50 (HCC827): 6.43
pIC50 [8]: 8.40
pIC50 (PC-9 [15]): 6.58
pIC50 (NCI-H1975 [16]): 6.71
pIC50 [22]: 8.31
pIC50 (A-431): 6.50
pIC50 [23]: 5.34

CCCN1CCN(c2ccc(Nc3nc(Nc4ccccc4N(C)S(C)(=O)=O)c4cc[nH]c4n3)cc2F)CC1
pIC50 [1]: 6.85
pIC50 [2]: 6.16

CCN1CCN(c2ccc(Nc3nc(Nc4ccccc4N(C)S(C)(=O)=O)c4cc[nH]c4n3)cc2F)CC1
pIC50 [1]: 8.00
pIC50 [2]: 6.18
Ratio IC50 (NCI-H1975 [3]): 5.4
half-life [4]: 0.7 h
remaining at 2 h [5]: 97.8%
remaining at 1 h [6]: 41.9%
pIC50 (NCI-H1975 [7]): 6.75
pIC50 (HCC827): 6.92
pIC50 [8]: 8.04
Tmax [9]: 0.5 h
half-life [10]: 2.3 h
AUC(0-t) at 24 h [11]: 34000 ng·h/mL
pIC50 [12]: 7.57
pIC50 [13]: 7.64
Activity [14]: Non-Toxic
pIC50 (PC-9 [15]): 6.81
pIC50 (NCI-H1975 [16]): 6.70
Vd [17]: 2 L/kg
clearance [18]: 85 mL/min/kg
bioavailability [19]: > 100%
pIC50 [20]: 8.02
fraction unbound at 6 h [21]: 0.926
pIC50 [22]: 7.90
pIC50 (A-431): 6.48
pIC50 [23]: < 5.00
pIC50 [24]: 5.66
Cmax [25]: 4550 ng/mL
fraction unbound at 6 h [26]: 0.916
Ratio IC50 (PC-9 [27]): 5.4
pIC50 [28]: 5.88
Cmax [29]: 6030 ng/mL
pIC50 [30]: 5.40
remaining at 1 h [31]: 33%
Activity [32]: Non-Toxic
remaining at 2 h [33]: 91.8%
AUC(0-t) at 24 h [34]: 978 ng·h/mL

COc1cc(N2CCN(C)CC2)ccc1Nc1nc(Nc2ccccc2N(C)S(C)(=O)=O)c2cc[nH]c2n1
pIC50 [1]: 6.48
pIC50 [2]: 5.50

CN1CCN(c2ccc(Nc3nc(Nc4ccccc4N(C4CC4)S(C)(=O)=O)c4cc[nH]c4n3)cc2F)CC1
pIC50 [1]: 7.25
pIC50 [2]: 6.56

C=CC(=O)Nc1cc(Nc2nccc(-c3cn(C)c4ccccc34)n2)c(OC)cc1N(C)CCN(C)C [OSIMERTINIB]
pIC50 [1]: 5.91
pIC50 [2]: 7.87

COc1cc(N2CCC(N3CCN(C)CC3)CC2)ccc1Nc1ncc(Cl)c(Nc2ccccc2P(C)(C)=O)n1 [BRIGATINIB]
pIC50 [1]: 6.64
pIC50 [2]: 6.11
pIC50 (NCI-H1975 [7]): 6.42
pIC50 (HCC827): 6.55
pIC50 [12]: 6.01
pIC50 [13]: 5.43
pIC50 (PC-9 [15]): 6.08
pIC50 (NCI-H1975 [16]): 5.95
pIC50 (A-431): 6.27
pIC50 [24]: 5.48
pIC50 [30]: 5.23

CCN(c1ccccc1Nc1nc(Nc2ccc(N3CCN(C)CC3)c(F)c2)nc2[nH]ccc12)S(C)(=O)=O
pIC50 [1]: 7.44
pIC50 [2]: 6.69

— ChEMBL document CHEMBL5634119, “Design and synthesis of 4th generation EGFR inhibitors against human triple (Del19/T790M/C797S) mutation” (Eur J Med Chem, 2023)
